Laboratory results published in patent publication US10227357B2, “Compounds and methods for kinase modulation, and indications therefor” (Plexxikon Inc., priority 2012, dated 2019).

Assays:
c-kit kinase = target: T1, c-kit kinase (Homo sapiens, UniProt P10721); assay: c-Kit biochemical assay, AlphaScreen, 10 μM ATP; conditions: c-kit biochemical inhibitory activity; read-out: Biochemical activity (IC50 μM) Kit
T1 construct: The c-kit (or kinase domain thereof) is an active kinase in AlphaScreen; poly-Histidine tag (in-house protein only) (cleaved yes); host or cells: E. coli BL21(DE3)RIL, co-expressed with PTP1B
Procedure, shortened: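 His-tagged c-Kit expressed in E. coli with co-expressed PTP1B (dephosphorylated), tag removed; 0.1 ng per reaction with biotinylated-peptide substrate in 50 mM HEPES pH 7.2, 5 mM MgCl2, 5 mM MnCl2, 5% DMSO, 10 μM ATP, 1 h at room temperature. Phosphorylation detected by AlphaScreen (streptavidin donor, PY20 acceptor beads); IC50 from 8-point 1:3 dilution series.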

c-kit mutant D816V = target: T2, c-kit mutant D816V (Homo sapiens, UniProt P10721, D816V/DEL694-753); assay: c-Kit mutant D816V biochemical assay, AlphaScreen; conditions: c-kit D816V biochemical inhibitory activity; read-out: Biochemical activity (IC50 μM) Kit D816V
T2 construct: residues 551-934, kinase insertion domain residues 694-753 deleted; 6x-histidine (N); made in house; host or cells: E. coli Arctic Express (DE3) RIL (Stratagene)
Procedure, shortened: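 Purified His-tagged c-Kit D816V (E. coli-expressed) assayed in 25 mM HEPES pH 7.2 with Mg/Mn, 5% DMSO and 10 μM ATP, 30 min at room temperature, 8-point 1:3 dilutions. Phosphorylation detected by AlphaScreen with streptavidin donor and PY20 acceptor beads; IC50 from signal versus concentration.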

T2 sequence (P10721 with tags, fused parts or gaps DEL694-753/D816V): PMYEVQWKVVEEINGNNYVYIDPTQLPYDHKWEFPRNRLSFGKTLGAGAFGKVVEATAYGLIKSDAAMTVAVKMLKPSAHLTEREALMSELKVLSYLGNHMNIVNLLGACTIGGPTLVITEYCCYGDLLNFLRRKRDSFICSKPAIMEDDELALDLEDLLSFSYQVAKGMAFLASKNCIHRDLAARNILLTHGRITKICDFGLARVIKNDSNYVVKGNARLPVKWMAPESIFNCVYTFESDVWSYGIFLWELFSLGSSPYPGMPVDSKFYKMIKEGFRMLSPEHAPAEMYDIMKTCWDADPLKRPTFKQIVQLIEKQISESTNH
T1 sequence (P10721 26-976): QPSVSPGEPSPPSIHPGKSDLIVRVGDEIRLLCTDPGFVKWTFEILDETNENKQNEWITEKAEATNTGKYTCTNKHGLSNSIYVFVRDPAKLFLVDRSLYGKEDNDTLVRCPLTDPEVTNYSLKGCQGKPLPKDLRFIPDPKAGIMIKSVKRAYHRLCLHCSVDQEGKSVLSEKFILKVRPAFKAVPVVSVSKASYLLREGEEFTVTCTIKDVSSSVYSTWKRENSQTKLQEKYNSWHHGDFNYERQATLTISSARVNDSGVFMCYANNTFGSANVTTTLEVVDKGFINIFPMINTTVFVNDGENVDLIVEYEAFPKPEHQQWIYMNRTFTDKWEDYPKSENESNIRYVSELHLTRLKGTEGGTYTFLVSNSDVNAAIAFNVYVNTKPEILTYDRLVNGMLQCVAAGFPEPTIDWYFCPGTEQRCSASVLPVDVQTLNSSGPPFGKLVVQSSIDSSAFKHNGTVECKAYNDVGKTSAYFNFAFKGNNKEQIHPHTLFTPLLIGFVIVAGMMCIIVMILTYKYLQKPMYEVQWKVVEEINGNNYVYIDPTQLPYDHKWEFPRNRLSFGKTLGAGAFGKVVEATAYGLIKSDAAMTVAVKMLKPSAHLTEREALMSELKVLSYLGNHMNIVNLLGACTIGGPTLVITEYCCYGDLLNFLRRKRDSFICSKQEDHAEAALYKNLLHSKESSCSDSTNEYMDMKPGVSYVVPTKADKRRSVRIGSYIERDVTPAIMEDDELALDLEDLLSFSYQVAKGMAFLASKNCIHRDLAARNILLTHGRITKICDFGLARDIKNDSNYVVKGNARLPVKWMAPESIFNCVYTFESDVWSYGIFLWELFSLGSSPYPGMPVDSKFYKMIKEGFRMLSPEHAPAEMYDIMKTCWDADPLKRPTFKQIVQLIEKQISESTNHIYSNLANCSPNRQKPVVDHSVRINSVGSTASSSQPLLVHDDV

Row | Structure (SMILES) | IC50 (c-kit kinase) [µM] | IC50 (c-kit mutant D816V) [µM]
1 | CCc1ccc(S(=O)(=O)Nc2ccc(-c3ncnc4[nH]c(C)cc34)cc2)cc1 [P-0315, 4-ethyl-N-[4-(6-methyl-7H-pyrrolo[2,3-d]pyrimidin-4-yl)phenyl]benzenesulfonamide] | 1 to 10 | 0.0001 to 1
2 | Cc1cc2c(-c3ccc(NS(=O)(=O)c4ccc(C(F)(F)F)cc4)cc3)ncnc2[nH]1 [P-0317, N-[4-(6-methyl-7H-pyrrolo[2,3-d]pyrimidin-4-yl)phenyl]-4-(trifluoromethyl)benzenesulfonamide] | 10 to 200 | 0.0001 to 1
3 | Cc1cc2c(-c3ccc(NS(=O)(=O)c4ccc(Br)cc4)cc3)ncnc2[nH]1 [P-0318, 4-bromo-N-[4-(6-methyl-7H-pyrrolo[2,3-d]pyrimidin-4-yl)phenyl]benzenesulfonamide] | 1 to 10 | 1 to 10
4 | CNS(=O)(=O)c1cccc(-c2ncnc3[nH]c(C)cc23)c1 [P-0319, N-methyl-3-(6-methyl-7H-pyrrolo[2,3-d]pyrimidin-4-yl)benzenesulfonamide] | 10 to 200 | 10 to 200
5 | Cc1cc2c(-c3cccc(NS(C)(=O)=O)c3)ncnc2[nH]1 [P-0320, N-[3-(6-methyl-7H-pyrrolo[2,3-d]pyrimidin-4-yl)phenyl]methanesulfonamide] | 10 to 200 | 10 to 200
6 | O=S(=O)(Nc1ccc(-c2ncnc3[nH]c(C4=CCCC4)cc23)c(F)c1)c1ccc(F)cc1 [P-0321, N-[4-[6-(cyclopenten-1-yl)-7H-pyrrolo[2,3-d]pyrimidin-4-yl]-3-fluoro-phenyl]-4-fluoro-benzenesulfonamide] | 0.0001 to 1 | 0.0001 to 1
7 | Cc1cc2c(-c3ccc(NS(=O)(=O)c4cnn(C(F)F)c4)cc3)ncnc2[nH]1 [P-0322, 1-(difluoromethyl)-N-[4-(6-methyl-7H-pyrrolo[2,3-d]pyrimidin-4-yl)phenyl]pyrazole-4-sulfonamide] | 10 to 200 | 1 to 10
8 | Cc1cc2c(-c3ccc(NS(=O)(=O)c4ccc(Cl)s4)cc3)ncnc2[nH]1 [P-0323, 5-chloro-N-[4-(6-methyl-7H-pyrrolo[2,3-d]pyrimidin-4-yl)phenyl]thiophene-2-sulfonamide] | 1 to 10 | 1 to 10
9 | COc1ccc(S(=O)(=O)Nc2ccc(-c3ncnc4[nH]c(C)cc34)cc2)cn1 [P-0324, 6-methoxy-N-[4-(6-methyl-7H-pyrrolo[2,3-d]pyrimidin-4-yl)phenyl]pyridine-3-sulfonamide] | 1 to 10 | 1 to 10
10 | COc1ccc(S(=O)(=O)Nc2ccc(-c3ncnc4[nH]c(C)cc34)cc2)cc1F [P-0325, 3-fluoro-4-methoxy-N-[4-(6-methyl-7H-pyrrolo[2,3-d]pyrimidin-4-yl)phenyl]benzenesulfonamide] | 10 to 200 | 1 to 10
11 | COc1ccc(S(=O)(=O)Nc2ccc(-c3ncnc4[nH]c(C)cc34)cc2)cc1 [P-0326, 4-methoxy-N-[4-(6-methyl-7H-pyrrolo[2,3-d]pyrimidin-4-yl)phenyl]benzenesulfonamide] | 1 to 10 | 1 to 10
12 | O=S(=O)(Nc1ccc(Cl)cc1)c1ccc(-c2ncnc3[nH]c(-c4ccc(F)cc4)cc23)c(F)c1 [P-0327, N-(4-chlorophenyl)-3-fluoro-4-[6-(4-fluorophenyl)-7H-pyrrolo[2,3-d]pyrimidin-4-yl]benzenesulfonamide] | 10 to 200 | 0.0001 to 1
13 | O=S(=O)(Nc1ccc(F)cc1)c1ccc(-c2ncnc3[nH]c(-c4ccc(F)cc4)cc23)c(F)c1 [P-0328, 3-fluoro-N-(4-fluorophenyl)-4-[6-(4-fluorophenyl)-7H-pyrrolo[2,3-d]pyrimidin-4-yl]benzenesulfonamide] | 10 to 200 | 0.0001 to 1
14 | Cc1cc2c(-c3ccc(NS(=O)(=O)c4ccc(OC(F)F)cc4)cc3)ncnc2[nH]1 [P-0329, 4-(difluoromethoxy)-N-[4-(6-methyl-7H-pyrrolo[2,3-d]pyrimidin-4-yl)phenyl]benzenesulfonamide] | 10 to 200 | 10 to 200
15 | Cc1cc2c(-c3ccc(NS(=O)(=O)c4ccc(Cl)cc4)cc3)ncnc2[nH]1 [P-0330, 4-chloro-N-[4-(6-methyl-7H-pyrrolo[2,3-d]pyrimidin-4-yl)phenyl]benzenesulfonamide] | 1 to 10 | 1 to 10
16 | Cc1cc2c(-c3ccc(NS(=O)(=O)c4ccc(F)cc4)cc3)ncnc2[nH]1 [P-0331, 4-fluoro-N-[4-(6-methyl-7H-pyrrolo[2,3-d]pyrimidin-4-yl)phenyl]benzenesulfonamide] | 1 to 10 | 1 to 10

Row | Structure (SMILES) | IC50 (c-kit kinase) [µM] | IC50 (c-kit mutant D816V) [µM]
17 | CS(=O)(=O)Nc1ccc(-c2ncnc3[nH]c(-c4ccc(F)cc4F)cc23)c(F)c1 [P-0333, N-[4-[6-(2,4-difluorophenyl)-7H-pyrrolo[2,3-d]pyrimidin-4-yl]-3-fluoro-phenyl]methanesulfonamide] | 0.0001 to 1 | 0.0001 to 1
18 | Cc1cc2c(-c3ccc(NS(=O)(=O)c4cc(F)ccc4F)cc3F)ncnc2[nH]1 [P-0335, 2,5-difluoro-N-[3-fluoro-4-(6-methyl-7H-pyrrolo[2,3-d]pyrimidin-4-yl)phenyl]benzenesulfonamide] | 1 to 10 | 1 to 10
19 | Cc1cc2c(-c3ccc(S(=O)(=O)Nc4ccc(F)cc4)cc3F)ncnc2[nH]1 [P-0336, 3-fluoro-N-(4-fluorophenyl)-4-(6-methyl-7H-pyrrolo[2,3-d]pyrimidin-4-yl)benzenesulfonamide] | 10 to 200 | 1 to 10
20 | O=S(=O)(Nc1ccc(-c2ncnc3[nH]c(-c4cc(F)ccc4F)cc23)c(F)c1)c1ccc(Cl)cc1 [P-0337, 4-chloro-N-[4-[6-(2,5-difluorophenyl)-7H-pyrrolo[2,3-d]pyrimidin-4-yl]-3-fluoro-phenyl]benzenesulfonamide] | 10 to 200 | 0.0001 to 1
21 | O=S(=O)(Nc1ccc(-c2ncnc3[nH]c(-c4cc(F)ccc4F)cc23)c(F)c1)C1CC1 [P-0338, N-[4-[6-(2,5-difluorophenyl)-7H-pyrrolo[2,3-d]pyrimidin-4-yl]-3-fluoro-phenyl]cyclopropanesulfonamide] | 10 to 200 | 1 to 10
22 | CS(=O)(=O)Nc1ccc(-c2ncnc3[nH]c(-c4cc(F)ccc4F)cc23)c(F)c1 [P-0339, N-[4-[6-(2,5-difluorophenyl)-7H-pyrrolo[2,3-d]pyrimidin-4-yl]-3-fluoro-phenyl]methanesulfonamide] | 1 to 10 | 0.0001 to 1
23 | O=S(=O)(Nc1ccc(-c2ncnc3[nH]c(-c4ccc(F)cc4F)cc23)c(F)c1)C1CC1 [P-0340, N-[4-[6-(2,4-difluorophenyl)-7H-pyrrolo[2,3-d]pyrimidin-4-yl]-3-fluoro-phenyl]cyclopropanesulfonamide] | 10 to 200 | 0.0001 to 1
24 | Cc1cc2c(-c3ccc(NS(=O)(=O)c4cc(F)cc(F)c4)cc3F)ncnc2[nH]1 [P-0342, 3,5-difluoro-N-[3-fluoro-4-(6-methyl-7H-pyrrolo[2,3-d]pyrimidin-4-yl)phenyl]benzenesulfonamide] | 10 to 200 | 10 to 200
25 | Cc1cc2c(-c3ccc(S(=O)(=O)Nc4ccc(F)cc4)c(F)c3)ncnc2[nH]1 [P-0343, 2-fluoro-N-(4-fluorophenyl)-4-(6-methyl-7H-pyrrolo[2,3-d]pyrimidin-4-yl)benzenesulfonamide] | 10 to 200 | 1 to 10
26 | Cc1cc2c(-c3ccc(NS(=O)(=O)c4ccc(Cl)cc4)c(F)c3)ncnc2[nH]1 [P-0344, 4-chloro-N-[2-fluoro-4-(6-methyl-7H-pyrrolo[2,3-d]pyrimidin-4-yl)phenyl]benzenesulfonamide] | 1 to 10 | 1 to 10
27 | Cc1cc2c(-c3ccc(NS(=O)(=O)c4cccc(Cl)c4)c(F)c3)ncnc2[nH]1 [P-0345, 3-chloro-N-[2-fluoro-4-(6-methyl-7H-pyrrolo[2,3-d]pyrimidin-4-yl)phenyl]benzenesulfonamide] | 1 to 10 | 1 to 10
28 | Cc1cc2c(-c3ccc(NS(=O)(=O)c4ccc(F)cc4)c(F)c3)ncnc2[nH]1 [P-0346, 4-fluoro-N-[2-fluoro-4-(6-methyl-7H-pyrrolo[2,3-d]pyrimidin-4-yl)phenyl]benzenesulfonamide] | 1 to 10 | 1 to 10
29 | Cc1cc2c(-c3ccc(NS(=O)(=O)c4cccc(F)c4)c(F)c3)ncnc2[nH]1 [P-0347, 3-fluoro-N-[2-fluoro-4-(6-methyl-7H-pyrrolo[2,3-d]pyrimidin-4-yl)phenyl]benzenesulfonamide] | 1 to 10 | 1 to 10
30 | Cc1cc2c(-c3ccc(NS(=O)(=O)c4ccc(Cl)cc4)cc3F)ncnc2[nH]1 [P-0349, 4-chloro-N-[3-fluoro-4-(6-methyl-7H-pyrrolo[2,3-d]pyrimidin-4-yl)phenyl]benzenesulfonamide] | 1 to 10 | 1 to 10
31 | Cc1cc2c(-c3ccc(NS(=O)(=O)c4ccc(C)c(F)c4)c(F)c3)ncnc2[nH]1 [P-0350, 3-fluoro-N-[2-fluoro-4-(6-methyl-7H-pyrrolo[2,3-d]pyrimidin-4-yl)phenyl]-4-methyl-benzenesulfonamide] | 1 to 10 | 1 to 10
32 | Cc1cc2c(-c3ccc(NS(=O)(=O)c4cccc(Cl)c4F)c(F)c3)ncnc2[nH]1 [P-0351, 3-chloro-2-fluoro-N-[2-fluoro-4-(6-methyl-7H-pyrrolo[2,3-d]pyrimidin-4-yl)phenyl]benzenesulfonamide] | 1 to 10 | 10 to 200
